Measurements reported in US7799775B2, “Pyrimidine derivatives” (ASKA Pharmaceutical Co., Ltd., priority 2004, dated 2010).
Where a name gives a salt, the structure may show the parent alone.

Tests used:
[1] = target: T1, human 5-HT3 receptor (Homo sapiens, UniProt P46098); assay: Measurement of affinity to human 5-HT3 receptor (in vitro), [3H]BRL-43694 binding; conditions: test compound 100 nmols/L; [3H]BRL-43694 0.5 nmols/L; HEK-293 cell membrane expressing human 5-HT3 receptor; read-out: Percent Inhibition (%) on Each Receptor's Binding at 10^−7M, 5-HT3
T1 construct: purchased BIOLINKS K.K; host or cells: HEK-293 cells (membrane preparation)
T1 sequence (P46098 24-478): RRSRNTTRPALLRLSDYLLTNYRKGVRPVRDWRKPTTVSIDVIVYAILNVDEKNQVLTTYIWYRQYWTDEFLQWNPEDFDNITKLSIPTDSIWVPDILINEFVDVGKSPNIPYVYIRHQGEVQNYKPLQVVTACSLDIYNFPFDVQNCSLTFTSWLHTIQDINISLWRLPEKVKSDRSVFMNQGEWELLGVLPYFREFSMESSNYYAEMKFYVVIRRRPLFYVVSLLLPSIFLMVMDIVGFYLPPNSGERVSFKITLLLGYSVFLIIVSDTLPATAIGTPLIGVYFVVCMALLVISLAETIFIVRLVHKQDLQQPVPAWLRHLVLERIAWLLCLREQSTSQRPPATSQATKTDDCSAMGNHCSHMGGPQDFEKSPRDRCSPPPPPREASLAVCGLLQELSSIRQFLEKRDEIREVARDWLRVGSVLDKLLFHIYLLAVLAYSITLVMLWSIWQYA
Procedure: (2) Measurement of Affinity of Each Test Compound to Human 5-HT3 Receptor (in Vitro):
HEK-293 cell membrane sample in which human 5-HT3 receptor was expressed (purchased from BIOLINKS K.K.) 0.05 mL (about 50 microassay) was added to 24.95 mL of incubation buffer solution B (an aqueous solution of a mixture of 50 mmols/L of Tris-hydrochloric acid, 5 mmols/L of magnesium chloride and 1 mmol/L of EDTA, whose pH was adjusted to 7.5 at 25° C. with 1N-aqueous sodium hydroxide solution) and homogenized, to provide a membrane sample suspension B. Separately, each test compound was made into 270 μmols/L of DMSO solution and diluted to a prescribed concentration with the incubation buffer solution B to provide a compound solution.
A piece of polypropylene tube was charged with 20 μL of [^3H]BRL-43694 (purchased from Daiichi Pure Chemicals Co., Ltd.) (The concentration of [^3H]BRL-43694 had been advancedly adjusted to render its concentration in the reaction mixture to 0.5 nmols/L.) and 20 μL of one of the compound solutions. Further 500 μL of the membrane sample suspension B was added into the tube, followed by 60 minutes' incubation at 25° C. The reaction was terminated by rapid filtration of the reaction mixture through GF/B filter which had been advancedly immersed in a solution formed by adding to the incubation buffer solution B polyethyleneimine to a concentration of 0.5%, using Brandel cell harvester. Then the filter was washed with about 5 mL of 50 mmols/L of Tris-hydrochloric acid which had been cooled to 4° C. The filter was once again washed after similar operation.
(§1) Residual radioactivity on the filter was measured with liquid scintillation counter (ALOKA CO., LTD. LSC-5100). Percent inhibition (%) of each test compound to binding of [^3H]BRL-43694 to 5-HT3 receptor at a concentration of 0.5 nmols/L, i.e., affinity of each test compound to 5-HT3 receptor, can be calculated according to the following expression. The ratio of non-specific binding was calculated by measuring the radioactivity in case of using tropisetron: (ICS 205-930) at a concentration of 10 μmols/L, with which value the measured value of each test compound was compensated.
(§2) Affinity of each test compound to 5-HT1A receptor and 5-HT3 receptor at a concentration of 100 nmols/L were as shown in the following Tables A-1 and A-2. BRL-43694 and tropisetron (ICS 205-930), which were used in measuring affinity of those compounds to 5-HT3 receptor, have the following structures: […]

[2] = target: T2, human 5-HT1A receptor (Homo sapiens, UniProt P08908); assay: Affinity measurement of the compounds to human 5-HT1A receptor (in vitro), [3H]8-OH-DPAT binding; conditions: test compound 100 nmols/L; [3H]8-OH-DPAT 0.25 nmols/L; CHO cell membrane expressing human 5-HT1A receptor; read-out: Percent Inhibition (%) on Each Receptor's Binding at 10^−7M, 5-HT1A
T2 construct: purchased Packard Bioscience; host or cells: CHO cells (membrane preparation)
T2 sequence (P08908 1-422): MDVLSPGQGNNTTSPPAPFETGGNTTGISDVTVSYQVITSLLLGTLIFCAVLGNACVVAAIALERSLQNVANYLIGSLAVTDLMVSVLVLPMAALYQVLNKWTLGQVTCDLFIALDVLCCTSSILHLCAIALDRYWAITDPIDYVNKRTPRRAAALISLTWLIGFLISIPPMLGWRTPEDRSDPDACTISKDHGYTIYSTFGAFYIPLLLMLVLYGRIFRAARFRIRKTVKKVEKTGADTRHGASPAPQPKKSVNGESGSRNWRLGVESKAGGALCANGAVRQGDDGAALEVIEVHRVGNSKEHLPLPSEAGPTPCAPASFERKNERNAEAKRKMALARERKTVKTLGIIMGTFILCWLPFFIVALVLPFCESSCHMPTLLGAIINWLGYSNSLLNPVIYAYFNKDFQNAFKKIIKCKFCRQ
Procedure: (1) Affinity Measurement of the Compounds to Human 5-HT1A Receptor (in Vitro)
CHO cell membrane sample in which human 5-HT1A receptor was expressed (purchased from Packard Bioscience) 0.25 mL (about 50 units) was added to 24.75 mL of incubation buffer solution A (an aqueous solution of a mixture of 50 mmols/L of Tris-hydrochloric acid, 10 mmols/L of magnesium sulfate, 0.5 mmols/L of EDTA and 0.1% ascorbic acid, whose pH was adjusted to 7.4 at 27° C. with 1N-aqueous sodium hydroxide solution), and labeled as membrane sample suspension A. Separately, each test compound was made into 270 μmols/L DMSO solution and diluted to a prescribed concentration with the incubation buffer solution A, to provide a compound solution.
A piece of polypropylene tube was charged with 20 μL of [^3H]8-OH-DPAT (8-hydroxy-2-(di-n-propylamino)tetralin; purchased from Daiichi Pure Chemicals Co., Ltd.) (The concentration of the [^3H]8-OH-DPAT had been advancedly adjusted to render its concentration in the reaction mixture to 0.25 nmols/L) and 20 μL of one of the compound solutions. Further 500 μL of the membrane sample suspension A was added into the tube, followed by 60 minutes' incubation at 27° C. The reaction was terminated by rapid filtration of the reaction mixture through GF/C filter which had been advancedly immersed in a solution formed by adding to the incubation buffer solution A polyethyleneimine to a concentration of 0.3%, using Brandel cell harvester. Then the filter was washed with about 5 mL of 50 mmols/L of Tris-hydrochloric acid which had been cooled to 4° C. The filter was once again washed after similar operation.
as §1, with “(Aloka Co.,” for “(ALOKA CO., LTD.”, “[^3H]8-OH-DPAT” for “[^3H]BRL-43694”, “5-HT1A” for “5-HT3”, “0.25” for “0.5”, “8-OH-DPAT” for “tropisetron: (ICS 205-930)”
as §2

Row | Structure (SMILES) | inhibition at 0.1 µM [1] [%] | inhibition at 0.1 µM [2] [%]
1 | Oc1ccc2ccnc(N3CCN4CCC[C@H]4C3)c2c1 [Production Example 85] | 98.9 | 99.9
2 | Brc1cc2c(N3CCN4CCC[C@H]4C3)nccc2s1 [Production Example 106, 2-bromo-4-((8aS)-octahydropyrrolo[1,2-a]pyrazin-2-yl)thieno[3,2-c]-pyridine] | 98.3 | 101
3 | Cn1c(NCCCN2CCN(c3ccc4ccccc4n3)CC2)nc2c(c1=O)CCCC2 [Example 7-29, 3-methyl-2-[3-(4-quinolin-2-ylpiperazin-1-yl)propylamino]-5,6,7,8-tetrahydro-3H-quinazolin-4-one] | 93.6 | 80.8
4 | O=c1[nH]c(NCCCN2CCN(c3nc4ccccc4n4cccc34)CC2)nc2ccccc12 [Example 5-8, 2-[3-(4-pyrrolo[1,2-a]quinoxalin-4-ylpiperazin-1-yl)propylamino]-3H-quinazolin-4-one] | 85.5 | 54.5
5 | NNc1cccc2nc(CCCCN3CCN(c4ccc5ccccc5n4)CC3)n(N)c(=O)c12 [Example 4-28, 3-amino-5-hydrazino-2-[4-(4-quinolin-2-ylpiperazin-1-yl)butyl]-3H-quinazolin-4-one] | 45.1 | 97.6
6 | CN1CCN(c2nc(Cl)cc3ccccc23)CC1 [Production Example 16, 3-chloro-1-(4-methylpiperazin-1-yl)isoquinoline dihydrochloride] | 99.2 | 61.1
7 | Nn1c(NCCCN2CCN(c3ccc4ccccc4n3)CC2)nc2c(c1=O)CCCC2 [Example 6-2, 3-amino-2-[3-(4-quinolin-2-ylpiperazin-1-yl)propylamino]-5,6,7,8-tetrahydro-3H-quinazolin-4-one] | 39.3 | 92.4
8 | Fc1ccc2ccnc(N3CCNCC3)c2c1 [Production Example 63, 7-fluoro-1-piperazin-1-ylisoquinoline] | 96.8 | 80.4
9 | c1cc2ccoc2c(N2CCN3CCC[C@@H]3C2)n1 [Production Example 110, 7-((8aR)-octahydropyrrolo[1,2-a]pyrazin-2-yl)furo[2,3-c]pyridine] | 97.9 | 98.9
10 | CSc1ccc2ccnc(N3CCN4CCC[C@H]4C3)c2c1 [Production Example 82] | 90.3 | 99.3
11 | Cn1c(CCCCN2CCN(c3ccc4ccccc4n3)CC2)nc2cccc(Cl)c2c1=O [Example 7-18, 5-chloro-3-methyl-2-[4-(4-quinolin-2-ylpiperazin-1-yl)butyl]-3H-quinazolin-4-one] | 68.8 | 93.1
12 | COc1ccc2ccnc(N3CCN4CCCCC4C3)c2c1 (stereo not shown) [Production Example 81, 7-methoxy-1-octahydropyrido[1,2-a]pyrazin-2-ylisoquinoline] | 74.4 | 95.8
13 | Cn1c(NCCCN2CCN(c3ccc4ccccc4n3)CC2)nc2ccccc2c1=O [Example 7-30, 3-methyl-2-[3-(4-quinolin-2-ylpiperazin-1-yl)propylamine]-3H-quinazolin-4-one] | 92.4 | 73.5
14 | Nn1c(CCCCN2CCN(c3ccc4ccccc4n3)CC2)nc2c(c1=O)CCCCC2 [Example 4-42, 3-amino-2-[4-(4-quinolin-2-ylpiperazin-1-yl)butyl]-5,6,7,8,9-pentahydro-3H-cyclohepta[d]pyrimidin-4-one] | 58.5 | 95.8
15 | O=c1[nH]c(SCCCN2CCN(c3ccc4ccccc4n3)CC2)nc2ccsc12 [Example 2-12, 2-[3-(4-quinolin-2-ylpiperazin-1-yl)propylthio]-3H-thieno[3,2-d]-pyrimidin-4-one] | 34.6 | 41.9
16 | c1cc2sccc2c(N2CCN3CCC[C@@H]3C2)n1 [Production Example 109, 4-((8aR)-octahydropyrrolo[1,2-a]pyrazin-2-yl)thieno[3,2-c]pyridine] | 92.5 | 75.4
17 | c1cc2occc2c(N2CCN3CCC[C@@H]3C2)n1 [Production Example 113, 4-((8aR)-octahydropyrrolo[1,2-a]pyrazin-2-yl)furo[3,2-c]pyridine] | 82.4 | 56.4
18 | Cc1cc(N2CCN(CCCSc3nc4sc5c(c4c(=O)[nH]3)CCNC5)CC2)nc2ccccc12 [Example 2-20, 2-[3-[4-(4-methylquinolin-2-yl)piperazin-1-yl]propylthio]-3,4,5,6,7,8-hexahydro-4-oxo-9-thia-1,3,7-triaza-9H-fluorene trihydrochloride] | 52.8 | 81.6
19 | O[C@@H]1C[C@H]2CN(c3nccc4ccsc34)CCN2C1 [Production Example 112, 7-((7R,8aS)-7-hydroxyoctahydropyrrolo[1,2-a]pyrazin-2-yl)thieno-[2,3-c]pyridine] | 98.8 | 53.9
20 | CCCn1c(CCCCN2CCN(c3ccc4ccccc4n3)CC2)nc2c(c1=O)CCCC2 [Example 7-3, 3-propyl-2-[4-(4-quinolin-2-ylpiperazin-1-yl)butyl]-5,6,7,8-tetrahydro-3H-quinazolin-4-one] | 84.7 | 85.8
